Earlier results as cited in patent publication US20100166698A1, “NEW COMPOSITIONS AND METHODS FOR THE TREATMENT OF INFLAMMATION” (University of Virginia Patent Foundation, priority 2005, published 2010).

Assays:
[1] = system: TNF-α-stimulated PMN adhering to matrix proteins; conditions: DeLa Harpe, J. Immunol. 143, 596 (1989)
[2] = system: TNF-a-stimulated PMN; conditions: adenosine 10 μM

SMILES: Nc1ncnc2c1ncn2[C@@H]1O[C@H](CO)[C@@H](O)[C@H]1O [adenosine]
- oxidative burst of TNF-α-stimulated PMN adhering to matrix proteins [1]: dramatically decreases
- effect on TNF-a-stimulated PMN adherence to matrix proteins [2]: failed to see much of an effect
